Assay results as given in patent US20170202939A1, “PERSONALIZED CANCER VACCINES AND METHODS THEREFOR” (Washington University, priority 2014, published 2017).
No end group written: not given here.

Tested on: TCRβ clonotypes in CD8+ T cell populations
Assay: TCRβ CDR3 sequencing of neoantigen-specific CD8+ T cells, pre- and post-vaccine
Set-up: species or system human
Experimental: Short-term ex-vivo expanded neoantigen-specific T cells were purified to 97-99% purity by cell sorting in a Sony SY3200 BSC (Sony Biotechnology) fitted with a 100 um nozzle, at 30 psi, using 561 nm (585/40) and 642 nm (665/30) lasers and cell pellets were prepared. DNA isolation and TCRβ sequencing was performed by Adaptive Biotechnologies and The Genome Institute at Washington University. Sequencing was performed at either survey (for neoantigen-specific TCRβ reference libraries) or deep (for pre- and post-vaccine CD8+ T cell populations) level (Robins, H., et al., J. Immunol. Methods, 375, 14-19, 2012; Carlson, C. S., et al., Nat. Commun., 4, 2680, 2013). TCRβ V-, D-, J-genes of each CDR3 regions were defined using IMGT (ImMunoGeneTics)/Junctional algorithms and data uploaded into the ImmunoSeq Analyzer (Adaptive Biotechnologies) for analysis. Complete amino acid identity between the reference library and pre- and post-vaccine CD8 samples was required for assigning a TCRβ match. In the reference library, TCRβ clonotypes with frequencies above 0.1% (>100-fold sequencing depth) were set as a threshold for identification of neoantigen-specific TCRβ CDR3 sequences within pre- and post-vaccine CD8+ T cell populations.
Reference T cell receptor-β (TCRβ) complementarity-determining region 3 (CDR3) sequence libraries (shown schematically in FIG. 42, Tables 7-11) were generated from short-term expanded sorted neoantigen-specific T cells (97-99% dextramer-positive), in Tables 7-11, TCRBV, TCRBD and TCRBJ are shown according to consensus nomenclature and CDR3 sequence for each clonotype indicated. Read counts indicates the number of times a given CDR3 sequence was found in the short term ex-vivo expanded neoantigen population. TCRβ clonotypes with frequencies above 0.1% (>100-fold sequencing depth), in reference library, were set as a threshold for identification of neoantigenspecific TCRβ CDR3 sequences within CD8+ T cell populations isolated from PBMC obtained pre- and post-vaccination. […] Frequencies are shown as percent of total reads. […]

## IILVAVPHV
CD8+ T cells from PBMC after vaccination
  TCRβ clonotypes, post-vaccine: 12 clonotypes
CD8+ T cells from PBMC before vaccination
  TCRβ clonotypes, pre-vaccine: 2 clonotypes
post-vaccine clonotypes
  TCRβ families represented: 8 TCRβ families
